Measured values as given in patent US10017492B2 (KANGPU BIOPHARMACEUTICALS, LTD., priority 2014, dated 2018).

Columns and labels:
[1] = test system: TNF-α; experiment: TNF-α activity inhibiting assay (LPS-stimulated peripheral blood, ELISA); format: cell-based, human; details: Homo sapiens, compound 100 nM, diluted peripheral blood of healthy volunteers, LPS 10 ng/mL, 6 hours, read-out: Inhibitory Rate on TNF-α (%)
Method: TNF-α Activity Inhibiting Assay
Peripheral blood from healthy volunteers was collected and collected with EDTA anticoagulant tubes. After being diluted 5-fold with 1640 medium (Gibco, catalog number 11875-093, USA), the blood was added to 96-well cell culture plates (Costar, catalog number 3599, USA) and then treated with 10 μL solution of the compound of general formula (I) of the present invention in DMSO (Sigma, catalog number D2650, USA). The final concentration of the compound was 100 nM, and the final concentration of DMSO was 0.2%. After incubation for 60 minutes in an incubator at 37° C. under 5% CO2, 10 μL LPS (Sigma, catalog number L-2880, USA) was added to the reaction system, and the final concentration was 10 ng/mL. After further culturing for 6 hours in the incubator at 37° C. under 5% CO2, the supernatant was collected. The content of TNF-α was determined by ELISA (BD Biosciences, catalog number 555212, USA). Absorbance was detected at OD450 nm with a microplate reader, with OD 650 nm as reference. The control, a solution containing 0.2% DMSO medium, was as 0% inhibition. Raw data and standard curves were recorded. The four-parameter drug inhibition curve was plotted by XL-fit software and the inhibition rate of each compound was calculated, as shown in Table 1.

[2] = test system: MM.1S cells (myeloma cells); experiment: Cell proliferation assay (MTS), MM.1S myeloma cells; format: cell-based; details: Homo sapiens, MM1.S, 72 hours, read-out: IC50 values of MMIS Inhibition
Method: MM.1S cells (myeloma cells) (ATCC, catalog number CRL-2974) were seeded at 1.8×10^3 per well to a 96-well culture plate containing […] (Gibco, catalog number A10491-01), and were incubated in an incubator for 24 hours at 37° C. under 5% CO2. Compounds were prepared as 20 mM stock solutions with DMSO (Sigma, catalog number D2650), and were diluted with the medium to the desired concentration (the final concentration of DMSO was 0.5%) and then were added to each well, incubated in an incubator for 72 hours at 37° C. under 5% CO2. Then, 20 μL MTS (Promega, catalog number G3581) was added to each well, and further incubated for 1-4 hours in an incubator at 37° C. under 5% CO2. OD490 nm was detected with OD650 nm as reference. The control, a solution containing 0.5% DMSO medium, was as 0% inhibition. GraphPad Prism 5 was used, slope was allowed to change to make the dose-effect curve and IC50 values were calculated, shown in table 2 for details.

Row | SMILES | inhibition at 0.1 µM [1] [%] | IC50 [2] [µM]
1 | O=C1CCC(N2Cc3c(NCc4cc(OCCN5CCCC5)ccc4F)cccc3C2=O)C(=O)N1 (centres unmarked) [Compound A376, 3-(4-((2-fluoro-5-(2-(pyrrolidin-1-yl)ethoxy)benzyl)amino)-1-oxoisoindolin-2-yl)piperidine-2,6-dione] | ≥ 50 | < 0.3
2 | COc1cc(CNc2cccc3c2CN(C2CCC(=O)NC2=O)C3=O)cc(OC)c1 (centres unmarked) [Compound A355, 3-(4-((3,5-dimethoxybenzyl)amino)-1-oxoisoindolin-2-yl)piperidine-2,6-dione] | < 50 | ≥ 0.3
3 | Cc1cccc(CNc2cccc3c2CN(C2CCC(=O)NC2=O)C3=O)c1F (centres unmarked) [Compound A367, 3-(4-((2-fluoro-3-methylbenzyl)amino)-1-oxoisoindolin-2-yl)piperidine-2,6-dione] | ≥ 50 | < 0.3
4 | COc1ccc(F)c(CNc2cc(F)cc3c2CN(C2CCC(=O)NC2=O)C3=O)c1 (centres unmarked) [Compound A320, 3-(6-fluoro-4-((2-fluoro-5-methoxybenzyl)amino)-1-oxoisoindolin-2-yl)-piperidine-2,6-dione] | < 50 | ≥ 0.3
5 | N#Cc1cccc(CNc2cccc3c2CN(C2CCC(=O)NC2=O)C3=O)c1F (centres unmarked) [Compound A360, 3-(((2-(2,6-dioxopiperidin-3-yl)-1-oxoisoindolin-4-yl)amino)methyl)-2-fluorobenzonitrile] | < 50 | < 0.3
6 | CC(=O)Nc1cccc(CNc2cccc3c2CN(C2CCC(=O)NC2=O)C3=O)c1F (centres unmarked) [Compound A388, N-(3-(((2-(2,6-dioxopiperidin-3-yl)-1-oxoisoindolin-4-yl)amino)methyl)-2-fluorophenyl)acetamide] | ≥ 50 | < 0.3
7 | COc1ccc(CNc2cccc3c2CN(C2CCC(=O)NC2=O)C3=O)cc1OC (centres unmarked) [Compound A349, 3-(4-((3,4-dimethoxybenzyl)amino)-1-oxoisoindolin-2-yl)piperidine-2,6-dione] | < 50 | ≥ 0.3
8 | CNc1cccc(COc2cccc3c2CN(C2CCC(=O)NC2=O)C3=O)c1F (centres unmarked) [Compound A385, 3-(4-((2-fluoro-3-(methylamino)benzyl)oxy)-1-oxoisoindolin-2-yl)piperidine-2,6-dione] | ≥ 50 | < 0.3
9 | CN1CCN(CCOc2ccc(F)c(CNc3cccc4c3CN(C3CCC(=O)NC3=O)C4=O)c2)CC1 (centres unmarked) [Compound A377, 3-(4-((2-fluoro-5-(2-(4-methylpiperazin-1-yl)ethoxy)benzyl)amino)-1-oxoisoindolin-2-yl)piperidine-2,6-dione] | < 50 | ≥ 0.3
10 | NC(=O)c1cccc(CNc2cccc3c2CN(C2CCC(=O)NC2=O)C3=O)c1F (centres unmarked) [Compound A361, 3-(((2-(2,6-Dioxopiperidin-3-yl)-1-oxoisoindolin-4-yl)amino)methyl)-2-fluorobenzamide] | ≥ 50 | < 0.3
11 | [2H]C1(N2Cc3c(N)cc(F)cc3C2=O)CCC(=O)NC1=O (racemic) [Compound I-01] | > 50 | –
12 | COc1cccc(CNc2cccc3c2CN(C2CCC(=O)NC2=O)C3=O)c1F (centres unmarked) [Compound A196, 3-(4-((2-fluoro-3-methoxybenzyl)amino)-1-oxoisoindolin-2-yl)piperidine-2,6-dione] | ≥ 50 | < 0.3
13 | O=C1CCC(N2Cc3c(NCc4cc(OCCN5CCOCC5)ccc4F)cccc3C2=O)C(=O)N1 (centres unmarked) [Compound A368, 3-(4-((2-fluoro-5-(2-morpholinoethoxy)benzyl)amino)-1-oxoisoindolin-2-yl)piperidine-2,6-dione] | ≥ 50 | < 0.3
14 | O=C1CCC(N2Cc3c(NCc4ccc(CN5CCOCC5)cc4)cc(F)cc3C2=O)C(=O)N1 (centres unmarked) [Compound A405, 3-(6-fluoro-4-((4-(morpholinomethyl)benzyl)amino)-1-oxoisoindolin-2-yl)piperidine-2,6-dione] | < 50 | ≥ 0.3
15 | COCCOc1ccc(F)c(CNc2cccc3c2CN(C2CCC(=O)NC2=O)C3=O)c1 (centres unmarked) [Compound A370, 3-(4-((2-fluoro-5-(2-methoxyethoxy)benzyl)amino)-1-oxoisoindolin-2-yl)piperidine-2,6-dione] | < 50 | ≥ 0.3
16 | COc1cccc(CNc2cc(F)cc3c2CN(C2CCC(=O)NC2=O)C3=O)c1F (centres unmarked) [Compound A318, 3-(6-fluoro-4-((2-fluoro-3-methoxybenzyl)amino)-1-oxoisoindolin-2-yl)-piperidine-2,6-dione] | < 50 | ≥ 0.3
17 | O=C1CCC(N2Cc3c(NCc4cc(OCCO)ccc4F)cccc3C2=O)C(=O)N1 (centres unmarked) [Compound A375, 3-(4-((2-fluoro-5-(2-hydroxyethoxy)benzyl)amino)-1-oxoisoindolin-2-yl)piperidine-2,6-dione] | < 50 | ≥ 0.3
18 | O=C1CCC(N2Cc3c(NCc4cc(OCCOC(=O)N5CCCC5)ccc4F)cccc3C2=O)C(=O)N1 (centres unmarked) [Compound A374, 2-(3-(((2-(2,6-dioxopiperidin-3-yl)-1-oxoisoindolin-4-yl)amino)methyl)-4-fluorophenoxy)ethyl pyrrolidine-1-carboxylate] | ≥ 50 | < 0.3
19 | COc1ccc(F)c(CNc2cccc3c2CN([C@H]2CCC(=O)NC2=O)C3=O)c1 [Compound A340, (S)-3-(4-((2-fluoro-5-methoxybenzyl)amino)-1-oxoisoindolin-2-yl)piperidine-2,6-dione] | < 50 | < 0.3
20 | Cc1ccc(CNc2cccc3c2CN(C2CCC(=O)NC2=O)C3=O)cc1F (centres unmarked) [Compound A353, 3-(4-((3-fluoro-4-methylbenzyl)amino)-1-oxoisoindolin-2-yl)piperidine-2,6-dione] | < 50 | < 0.3
21 | [2H][C@]1(N2Cc3c(NCc4cc(OC)ccc4F)cccc3C2=O)CCC(=O)NC1=O [Compound A343, (S)-3-deuterium-3-(4-((2-fluoro-5-methoxybenzyl)amino)-1-oxoisoindolin-2-yl)piperidine-2,6-dione] | ≥ 50 | < 0.3
22 | COc1ccc(F)c(CNc2cccc3c2CN([C@@H]2CCC(=O)NC2=O)C3=O)c1 [Compound A341, (R)-3-(4-((2-fluoro-5-methoxybenzyl)amino)-1-oxoisoindolin-2-yl)piperidine-2,6-dione] | < 50 | < 0.3
23 | COc1ccc(CNc2cccc3c2CN(C2CCC(=O)NC2=O)C3=O)cc1Cl (centres unmarked) [Compound A354, 3-(4-((3-chloro-4-methoxybenzyl)amino)-1-oxoisoindolin-2-yl)piperidine-2,6-dione] | < 50 | < 0.3
24 | CN(C)C(=O)Oc1ccc(F)c(CNc2cccc3c2CN(C2CCC(=O)NC2=O)C3=O)c1 (centres unmarked) [Compound A378, 3-(((2-(2,6-dioxopiperidin-3-yl)-1-oxoisoindolin-4-yl)amino)methyl)-4-fluorophenyl dimethylcarbamate] | < 50 | ≥ 0.3
25 | CNC(=O)c1cccc(CNc2cccc3c2CN(C2CCC(=O)NC2=O)C3=O)c1F (centres unmarked) [Compound A362, 3-(((2-(2,6-Dioxopiperidin-3-yl)-1-oxoisoindolin-4-yl)amino)methyl)-2-fluoro-N-methylbenzamide] | < 50 | ≥ 0.3
26 | O=C1CCC(N2Cc3c(NCc4cc(OCCCN5CCOCC5)ccc4F)cccc3C2=O)C(=O)N1 (centres unmarked) [Compound A369, 3-(4-((2-fluoro-5-(3-morpholinopropoxy)benzyl)amino)-1-oxoisoindolin-2-yl)piperidine-2,6-dione] | ≥ 50 | < 0.3
27 | O=C1CCC(N2Cc3c(OCc4ccccc4F)cccc3C2=O)C(=O)N1 (centres unmarked) [Compound A336, 3-[4-(2-Fluoro-benzyloxy)-1-oxo-1,3-dihydro-isoindol-2-yl]-piperidine-2,6-dione] | – | < 0.3
28 | O=C1CCC(N2Cc3c(NCc4cccc(O)c4F)cccc3C2=O)C(=O)N1 (centres unmarked) [Compound A359, 3-(4-((2-fluoro-3-hydroxybenzyl)amino)-1-oxoisoindolin-2-yl)piperidine-2,6-dione] | ≥ 50 | < 0.3
29 | O=C1CC[C@H](N2Cc3c(NCc4ccc(CN5CCOCC5)cc4)cccc3C2=O)C(=O)N1 [Compound A346, (S)-3-(4-((4-(morpholinomethyl)benzyl)amino)-1-oxoisoindolin-2-yl) piperidine-2,6-dione] | ≥ 50 | < 0.3
